# ChEMBL document CHEMBL1128892, “Pharmacological evaluation of UK-14,304 analogs at cloned human adrenergic receptors” (Bioorg Med Chem Lett, 1995)
# Active and inactive are the calls of the source. No cut-off for these calls is given here.
# Key:
# [1] = molecular target: T1, Alpha-2C adrenergic receptor (Homo sapiens) (UniProt P18825); test: Inhibitory activity against Alpha-2C adrenergic receptor relative to norepinephrine
# T1 sequence (whole entry): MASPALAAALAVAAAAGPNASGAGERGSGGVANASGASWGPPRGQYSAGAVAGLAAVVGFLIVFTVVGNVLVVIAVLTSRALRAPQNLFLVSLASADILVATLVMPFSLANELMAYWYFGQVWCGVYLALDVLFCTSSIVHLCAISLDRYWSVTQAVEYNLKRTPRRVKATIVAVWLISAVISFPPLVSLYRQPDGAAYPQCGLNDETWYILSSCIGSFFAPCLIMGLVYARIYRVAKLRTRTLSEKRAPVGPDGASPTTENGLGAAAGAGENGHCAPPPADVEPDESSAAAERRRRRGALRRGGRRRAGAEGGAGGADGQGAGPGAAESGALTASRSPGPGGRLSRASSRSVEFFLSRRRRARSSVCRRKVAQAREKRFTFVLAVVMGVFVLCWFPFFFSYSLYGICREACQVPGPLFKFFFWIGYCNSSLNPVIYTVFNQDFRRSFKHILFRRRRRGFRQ
# [2] = molecular target: T2, Alpha-2A adrenergic receptor (Homo sapiens) (UniProt P08913); test: Inhibitory activity against Alpha-2A adrenergic receptor relative to norepinephrine
# T2 sequence (whole entry): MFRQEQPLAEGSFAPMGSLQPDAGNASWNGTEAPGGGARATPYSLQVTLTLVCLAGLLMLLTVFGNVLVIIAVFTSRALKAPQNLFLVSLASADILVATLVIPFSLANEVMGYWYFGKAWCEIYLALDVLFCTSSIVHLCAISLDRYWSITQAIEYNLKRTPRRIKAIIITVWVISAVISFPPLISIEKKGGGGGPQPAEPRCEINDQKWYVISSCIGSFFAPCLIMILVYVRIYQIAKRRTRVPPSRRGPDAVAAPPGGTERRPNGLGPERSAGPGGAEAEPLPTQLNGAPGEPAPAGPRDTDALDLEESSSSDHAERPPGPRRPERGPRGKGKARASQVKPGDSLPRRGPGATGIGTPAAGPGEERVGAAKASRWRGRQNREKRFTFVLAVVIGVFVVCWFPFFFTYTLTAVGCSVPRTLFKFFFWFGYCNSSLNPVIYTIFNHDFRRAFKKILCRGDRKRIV
# [3] = molecular target: T3, Alpha-1B adrenergic receptor (Homo sapiens, UniProt P35368); test: Binding affinity for human Alpha-1B adrenergic receptor from cultured LM(tk-) cells using [3H]prazosin
# T3 sequence (P35368 whole entry): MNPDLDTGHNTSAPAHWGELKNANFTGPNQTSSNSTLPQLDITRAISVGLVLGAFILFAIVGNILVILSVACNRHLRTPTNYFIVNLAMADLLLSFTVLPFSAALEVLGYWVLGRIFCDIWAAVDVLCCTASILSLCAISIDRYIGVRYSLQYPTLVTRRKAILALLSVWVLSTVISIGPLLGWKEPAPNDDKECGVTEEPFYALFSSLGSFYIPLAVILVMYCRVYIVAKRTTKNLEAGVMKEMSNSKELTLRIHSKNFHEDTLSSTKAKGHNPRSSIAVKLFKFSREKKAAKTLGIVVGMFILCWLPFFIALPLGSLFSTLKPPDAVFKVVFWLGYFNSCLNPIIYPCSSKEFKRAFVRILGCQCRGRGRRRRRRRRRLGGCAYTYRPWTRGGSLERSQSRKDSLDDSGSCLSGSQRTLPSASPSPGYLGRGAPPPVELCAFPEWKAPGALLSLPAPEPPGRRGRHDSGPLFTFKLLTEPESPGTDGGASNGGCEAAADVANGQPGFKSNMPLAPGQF
# [4] = molecular target: T4, Alpha-1D adrenergic receptor (Homo sapiens, UniProt P25100); test: Binding affinity for human Alpha-1D adrenergic receptor from cultured LM(tk-) cells using [3H]- prazosin
# T4 sequence (P25100 whole entry): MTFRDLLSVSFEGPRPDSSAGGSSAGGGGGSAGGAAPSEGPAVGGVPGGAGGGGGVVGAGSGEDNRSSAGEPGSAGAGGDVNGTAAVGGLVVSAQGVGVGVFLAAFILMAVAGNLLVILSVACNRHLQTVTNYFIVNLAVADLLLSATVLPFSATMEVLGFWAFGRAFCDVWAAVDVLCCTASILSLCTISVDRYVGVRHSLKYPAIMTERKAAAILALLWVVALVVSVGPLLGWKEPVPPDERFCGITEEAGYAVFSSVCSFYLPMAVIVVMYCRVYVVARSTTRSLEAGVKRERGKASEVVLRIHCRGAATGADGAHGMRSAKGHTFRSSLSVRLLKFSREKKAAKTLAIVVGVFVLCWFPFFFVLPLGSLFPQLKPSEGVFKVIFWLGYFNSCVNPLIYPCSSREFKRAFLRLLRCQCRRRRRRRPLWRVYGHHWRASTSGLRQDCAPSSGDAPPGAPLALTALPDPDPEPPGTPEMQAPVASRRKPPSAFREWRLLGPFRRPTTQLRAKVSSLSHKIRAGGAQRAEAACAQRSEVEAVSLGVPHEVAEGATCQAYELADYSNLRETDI
# [5] = molecular target: T5, Alpha-2B adrenergic receptor (Homo sapiens, UniProt P18089); test: Alpha-2B adrenergic receptor agonistic potency as inhibition of forskolin-stimulated cyclic adenosine monophosphate synthesis; format: functional
# T5 sequence (P18089 whole entry): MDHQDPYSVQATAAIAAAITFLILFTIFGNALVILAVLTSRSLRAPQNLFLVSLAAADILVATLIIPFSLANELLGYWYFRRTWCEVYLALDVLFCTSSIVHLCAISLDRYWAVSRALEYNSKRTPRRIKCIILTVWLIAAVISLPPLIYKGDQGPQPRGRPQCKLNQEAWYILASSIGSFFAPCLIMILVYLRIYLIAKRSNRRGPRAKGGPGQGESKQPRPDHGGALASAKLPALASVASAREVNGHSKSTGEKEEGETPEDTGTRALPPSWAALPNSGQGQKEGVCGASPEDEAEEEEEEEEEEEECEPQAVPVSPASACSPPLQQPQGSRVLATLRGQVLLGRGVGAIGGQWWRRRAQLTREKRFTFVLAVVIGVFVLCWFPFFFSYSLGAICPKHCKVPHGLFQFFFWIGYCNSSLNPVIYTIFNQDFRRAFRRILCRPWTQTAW
# [6] = molecular target: T6, Alpha-1A adrenergic receptor (Homo sapiens, UniProt P35348); test: Binding affinity for human Alpha-1A adrenergic receptor from cultured LM(tk-) cells using [3H]-prazosin
# T6 sequence (P35348 whole entry): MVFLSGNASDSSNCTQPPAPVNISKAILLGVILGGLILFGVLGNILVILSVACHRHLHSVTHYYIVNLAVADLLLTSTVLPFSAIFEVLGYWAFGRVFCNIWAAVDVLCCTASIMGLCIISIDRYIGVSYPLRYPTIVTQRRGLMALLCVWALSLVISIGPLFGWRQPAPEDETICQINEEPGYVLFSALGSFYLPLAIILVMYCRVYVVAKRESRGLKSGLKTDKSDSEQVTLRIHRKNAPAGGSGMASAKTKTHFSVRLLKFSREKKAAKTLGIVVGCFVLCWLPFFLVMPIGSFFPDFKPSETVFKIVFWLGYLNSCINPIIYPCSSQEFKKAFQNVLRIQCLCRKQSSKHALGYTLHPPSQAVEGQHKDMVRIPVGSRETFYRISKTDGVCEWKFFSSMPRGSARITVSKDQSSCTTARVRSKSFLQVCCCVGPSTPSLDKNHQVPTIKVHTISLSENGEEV
# [7] = molecular target: T7, Alpha-2A adrenergic receptor (Homo sapiens, UniProt P08913); test: Binding affinity for human Alpha-2A adrenergic receptor from cultured LM(tk-) cells using [3H]rauwolscine
# T7 sequence (P08913 whole entry): T2 sequence (whole entry)
# [8] = molecular target: T8, Alpha-2C adrenergic receptor (Homo sapiens, UniProt P18825); test: Alpha-2C adrenergic receptor agonistic potency as inhibition of forskolin-stimulated cyclic adenosine monophosphate synthesis; format: functional
# T8 sequence (P18825 whole entry): T1 sequence (whole entry)
# [9] = molecular target: T7, Alpha-2A adrenergic receptor; test: Alpha-2A adrenergic receptor agonistic potency as inhibition of forskolin-stimulated synthesis of cyclic adenosine monophosphate; format: functional
# [10] = molecular target: T8, Alpha-2C adrenergic receptor; test: Binding affinity for human Alpha-2C adrenergic receptor from cultured LM(tk-) cells using [3H]- prazosin
# [11] = molecular target: T5, Alpha-2B adrenergic receptor; test: Binding affinity for human Alpha-2B adrenergic receptor from cultured Y-1 cells using [3H]rauwolscine; format: cell-based
# [12] = molecular target: T9, Alpha-2B adrenergic receptor (Homo sapiens) (UniProt P18089); test: The Alpha-2B adrenergic receptor agonistic potency for its ability to inhibit forskolin-stimulated synthesis of cyclic adenosine monophosphate at 100 uM concentration; Not active; format: functional
# T9 sequence (whole entry): T5 sequence (P18089 whole entry)
# [13] = molecular target: T9, Alpha-2B adrenergic receptor (Homo sapiens); test: Inhibitory activity against Alpha-2B adrenergic receptor relative to norepinephrine at 100 uM; Not active
# [14] = molecular target: T5, Alpha-2B adrenergic receptor; test: Binding affinity for human Alpha-2B adrenergic receptor from cultured LM(tk-) cells using [3H]- prazosin
# [15] = molecular target: T2, Alpha-2A adrenergic receptor (Homo sapiens); test: Alpha-2A adrenergic receptor agonistic potency as inhibition of forskolin-stimulated cyclic adenosine monophosphate synthesis at 100 uM; Not active; format: functional
# [16] = molecular target: T1, Alpha-2C adrenergic receptor (Homo sapiens); test: Inhibitory activity against Alpha-2C adrenergic receptor relative to norepinephrine at 100 uM; Not active
# [17] = molecular target: T2, Alpha-2A adrenergic receptor (Homo sapiens); test: Inhibitory activity against Alpha-2A adrenergic receptor relative to norepinephrine at 100 uM; Not active
# [18] = molecular target: T1, Alpha-2C adrenergic receptor (Homo sapiens); test: Alpha-2C adrenergic receptor agonistic potency as inhibition of forskolin-stimulated cyclic adenosine monophosphate synthesis at 100 uM; Not active; format: functional
# [19] = molecular target: T5, Alpha-2B adrenergic receptor; test: Binding affinity for human alpha-2B adrenoceptor from cultured Y-1 cells using [3H]rauwolscine; format: cell-based
# [20] = molecular target: T9, Alpha-2B adrenergic receptor (Homo sapiens); conditions: 100 uM
# [21] = molecular target: T9, Alpha-2B adrenergic receptor (Homo sapiens); test: Inhibitory activity against alpha-2B adrenoceptor relative to norepinephrine at 100 uM; Not active
# [22] = molecular target: T1, Alpha-2C adrenergic receptor (Homo sapiens); conditions: 100 uM
Compound,Intrinsic activity [1],Intrinsic activity [2],Ki [3],Ki [4],Ki [6],Ki [7],EC50 [8],EC50 [9],Ki [10],Ki [11],Log EC50 [12],Intrinsic activity [13],Intrinsic activity [16],also measured
Brc1c(NC2=NCCN2)ccc2nccnc12 [BRIMONIDINE],1,1,5.37 µM,0.933 µM,,,,,,,,,,
Brc1c(NC2=NCCN2)ccc2c1NCCN2,1,1,4.37 µM,2.69 µM,1.12 µM,0.00646 µM,0.105 µM,0.00282 µM,0.214 µM,0.049 µM,,,,EC50 [5]: 0.891 µM
CC1CN=C(Nc2ccc3nccnc3c2Br)N1 (stereo unspecified),0.8,0.8,> 100 µM,5.01 µM,> 100 µM,3.8 µM,0.832 µM,15.8 µM,0.646 µM,3.24 µM,inactive,inactive,,
Clc1c(NC2=NCCN2)ccc2nccnc12,1,1,10.5 µM,2.4 µM,5.13 µM,0.0372 µM,0.0309 µM,0.00234 µM,0.195 µM,0.0692 µM,,,,EC50 [5]: 0.174 µM
Cc1c(NC2=NCCN2)ccc2nccnc12,1,1,3.31 µM,0.562 µM,1.48 µM,0.00724 µM,0.0141 µM,0.0012 µM,0.0282 µM,,,,,EC50 [5]: 0.0776 µM; Ki [14]: 0.00891 µM
Brc1c(NC2=N[C@@H]3CCCC[C@@H]3N2)ccc2nccnc12,,,105 µM,41.7 µM,14.1 µM,14.8 µM,,,11.5 µM,18.2 µM,inactive,inactive,inactive,Log EC50 [15]: inactive; Intrinsic activity [17]: inactive; Log EC50 [18]: inactive
Ic1c(NC2=NCCN2)ccc2nccnc12,1,1,1.91 µM,0.282 µM,0.977 µM,0.00676 µM,0.055 µM,0.0115 µM,0.407 µM,,,,,Ki [19]: 0.0427 µM; Log EC50 [20]: inactive; Intrinsic activity [21]: inactive
Brc1c(NC2=NCCS2)ccc2nccnc12,,0.9,60.3 µM,27.5 µM,21.4 µM,10.2 µM,,2.75 µM,28.2 µM,17.4 µM,inactive,inactive,inactive,Log EC50 [18]: inactive
Cc1cnc2c(Br)c(NC3=NCCN3)ccc2n1,0.8,1,> 100 µM,5.01 µM,> 100 µM,0.0741 µM,0.832 µM,0.851 µM,0.646 µM,0.324 µM,inactive,inactive,,
c1cnc2cc(NC3=NCCN3)ccc2n1,,,3.24 µM,12.3 µM,18.2 µM,0.309 µM,,,1.41 µM,0.219 µM,inactive,inactive,inactive,Log EC50 [15]: inactive; Intrinsic activity [17]: inactive; Log EC50 [22]: inactive
Brc1c(NC2=NCCO2)ccc2nccnc12,,,141 µM,102 µM,91.2 µM,26.3 µM,,,49 µM,85.1 µM,inactive,inactive,inactive,Log EC50 [15]: inactive; Intrinsic activity [17]: inactive; Log EC50 [18]: inactive
